Laboratory results reported in US11371077B2, “High throughput cell-based screening for aptamers” (MeiraGTx UK II Limited, priority 2016, dated 2022).
Counter-ions that a name gives are not always drawn. Like-named read-outs stand apart in the source and are kept apart here.

Tests used:
Format in all cases: cell-based
gdg6-A8 riboswitch = assay: Luciferase reporter assay, gdg6-A8 riboswitch, transfected HEK 293 cells; settings: for fold induction at 100 µM: Homo sapiens, HEK293, gdg6-A8 riboswitch, Prestwick library compounds at 100 μM, HEK 293
Source text: (§1) Riboswitches were constructed as described in PCT/US2016/016234 (in particular Examples 3 to 6), incorporated herein by reference. A truncated human beta-globin intron sequence was synthesized and inserted in the coding sequence of a firefly luciferase gene. A mutant human DHFR exon 2 was synthesized and inserted in the middle of this truncated beta-globin intron sequence using Golden gate cloning strategy. Aptamers including xpt-G/A^1, ydhl-G/A^2, yxj^3, add^4, gdg6-G/A^5 (citations for the aptamers are incorporated herein by reference) were synthesized as oligonucleotides (“oligos”) with 4 nucleotide overhang at the 5′ end that are complementary to two different BsaI sites individually (IDT), annealed and ligated to BsaI-digested mDHFR-Luci-acceptor vector.
(§2) 3.5×10^4 HEK 293 cells were plated in a 96-well flat bottom plate the day before transfection. Plasmid DNA (500 ng) was added to a tube or a 96-well U-bottom plate. Separately, TransIT-293 reagent (Mirus; 1.4 μL) was added to 50 μL Opti-mem I media (Life Technologies), and allowed to sit for 5 minutes at room temperature (RT). Then, 50 μL of this diluted transfection reagent was added to the DNA, mixed, and incubated at RT for 20 min. Finally, 7 μL of this solution was added to a well of cells in the 96-well plate.
(§3) 24 hours after media change, plates were removed from the incubator, and equilibrated to RT for several minutes on a lab bench, then aspirated. Glo-lysis buffer (Promega, 100 μL, RT) was added, and the plates maintained at RT for at least 5 minutes. Then, the well contents were mixed by 50 μL trituration, and 20 μL of each sample was mixed with 20 μL of bright-glo reagent (Promega) that had been diluted to 10% in glo-lysis buffer. 96 wells were spaced on an opaque white 384-well plate. Following a 5 min incubation at RT, luminescence was measured using a Tecan machine with 500 mSec read time. The luciferase activity was expressed as mean relative light unit (RLU)±S.D., and fold induction was calculated as the luciferase activity obtained with guanine treatment divided by luciferase activity obtained without guanine treatment.

xpt-G17 riboswitch = assay: Luciferase reporter assay, xpt-G17 riboswitch, transfected HEK 293 cells; settings: Prestwick library compounds at 100 μM, HEK 293, preliminary screen; for fold induction at 100 µM: Homo sapiens, HEK293, xpt-G17 riboswitch
Source text: (§4) A truncated human beta-globin intron sequence was synthesized and inserted in the coding sequence of a firefly luciferase gene. A mutant human DHFR exon 2 was synthesized and inserted in the middle of this truncated beta-globin intron sequence using Golden gate cloning strategy. Aptamers including xpt-G/A^1, ydhl-G/A^2, yxj^3, add^4, gdg6-G/A^5 (citations for the aptamers are incorporated herein by reference) were synthesized as oligonucleotides (“oligos”) with 4 nucleotide overhang at the 5′ end that are complementary to two different BsaI sites individually (IDT), annealed and ligated to BsaI-digested mDHFR-Luci-acceptor vector.
as §2, §3

xpt-A8 riboswitch = assay: cells; settings: for fold induction at 100 µM: Homo sapiens
Source text: as §1, §2, §3

add-A6 riboswitch = assay: cells; settings: for fold induction at 100 µM: Homo sapiens
Source text: as §1, §2, §3

ydhl-G8 riboswitch = assay: Luciferase reporter assay, ydhl-G8 riboswitch, transfected HEK 293 cells; settings: ydhl-G8 riboswitch, Prestwick library compounds at 100 μM, HEK 293
Source text: as §4
as §2, with “Separately, TransIT-293 reagent (Mirus; 1.4 μL) was added to 50 μL Opti-mem I media (Life Technologies), and allowed to sit for 5 minutes at room temperature (RT).” left out
as §3

yxj-A6 riboswitch = assay: cells; settings: for fold induction at 100 µM: Homo sapiens
Source text: as §4, §2
as §3, with “The luciferase activity was expressed as mean relative light unit (RLU)±S.D., and fold induction was calculated as the luciferase activity obtained with guanine treatment divided by luciferase activity obtained without guanine treatment.” left out

gdg6-G8 riboswitch = assay: Luciferase reporter assay, gdg6-G8 riboswitch, transfected HEK 293 cells; settings: for fold induction at 100 µM: Homo sapiens, HEK293, gdg6-G8 riboswitch, Prestwick library compounds at 100 μM, HEK 293
Source text: as §1, §2, §3

add-G6 riboswitch = assay: cells; settings: for fold induction at 100 µM: Homo sapiens
Source text: as §4
as §2, with “Separately, TransIT-293 reagent (Mirus; 1.4 μL) was added to 50 μL Opti-mem I media (Life Technologies), and allowed to sit for 5 minutes at room temperature (RT).” left out
as §3, with “The luciferase activity was expressed as mean relative light unit (RLU)±S.D., and fold induction was calculated as the luciferase activity obtained with guanine treatment divided by luciferase activity obtained without guanine treatment.” left out

ydhl-A6 riboswitch = assay: Luciferase reporter assay, ydhl-A6 riboswitch, transfected HEK 293 cells; settings: for fold induction at 100 µM: Homo sapiens; for Fold Induction of luciferase activity: ydhl-A6 riboswitch
Source text: as §4
as §2, with “Separately, TransIT-293 reagent (Mirus; 1.4 μL) was added to 50 μL Opti-mem I media (Life Technologies), and allowed to sit for 5 minutes at room temperature (RT).” left out
as §3

[1] = HEK293, read-out: Fold Induction of luciferase activity
[2] = HEK293, xpt-A8 riboswitch, Prestwick library compounds at 100 μM, HEK 293, read-out: Fold Induction of luciferase activity
[3] = HEK293, add-A6 riboswitch, Prestwick library compounds at 100 μM, HEK 293, read-out: Fold Induction of luciferase activity
[4] = HEK293, yxj-A6 riboswitch, Prestwick library compounds at 100 μM, HEK 293, read-out: Fold Induction of luciferase activity
[5] = HEK293, add-G6 riboswitch, Prestwick library compounds at 100 μM, HEK 293, read-out: Fold Induction of luciferase activity
[6] = add-A6 riboswitch, Prestwick library compounds at 100 μM, HEK 293
[7] = HEK293, read-out: Fold Induction of luciferase activity, ydhl-A6 riboswitch, Prestwick library compounds at 100 μM, HEK 293

Compound: CN(C)CCCN1c2ccccc2Sc2ccccc21 [Promazine hydrochloride]
- fold induction at 100 µM (gdg6-A8 riboswitch): 12.6
- fold induction at 100 µM (xpt-G17 riboswitch): 3.7
- fold induction at 100 µM (xpt-A8 riboswitch; [1]): 4.1
- fold induction at 100 µM (add-A6 riboswitch; [1]): 10.5
- fold induction at 100 µM (ydhl-G8 riboswitch; Homo sapiens, HEK293, read-out: Fold Induction of luciferase activity): 5.2
- fold induction at 100 µM (yxj-A6 riboswitch; [1]): 6.6
- fold induction at 100 µM (gdg6-G8 riboswitch): 6.2
- fold induction at 100 µM (add-G6 riboswitch; [1]): 5.4

Compound: CC(CN1c2ccccc2Sc2ccccc21)N(C)C (stereo not shown) [Promethazine hydrochloride]
- fold induction at 100 µM (gdg6-A8 riboswitch): 4.8
- fold induction at 100 µM (xpt-G17 riboswitch): 5.3
- fold induction at 100 µM (xpt-A8 riboswitch; [2]): 5.4
- fold induction at 100 µM (add-A6 riboswitch; [3]): 4.5
- fold induction at 100 µM (yxj-A6 riboswitch; [4]): 7.9
- fold induction at 100 µM (gdg6-G8 riboswitch): 6.5
- fold induction at 100 µM (add-G6 riboswitch; [5]): 6.7

Compound: COC1=C(OC)C(=O)C(CCCCCCCCCCO)=C(C)C1=O [Idebenone]
- fold induction at 100 µM (ydhl-A6 riboswitch; [1]): 3.5
- fold induction at 100 µM (xpt-G17 riboswitch): 3.3
- fold induction at 100 µM (add-G6 riboswitch; [5]): 6.7

Compound: CN1CCC(=C2c3ccccc3Sc3ccccc32)CC1 [Pimethixene maleate]
- fold induction at 100 µM (gdg6-A8 riboswitch): 9.2
- fold induction at 100 µM (xpt-G17 riboswitch): 4.7
- fold induction at 100 µM (xpt-A8 riboswitch; [2]): 3.3
- fold induction at 100 µM (add-A6 riboswitch; [3]): 4.2
- fold induction at 100 µM (yxj-A6 riboswitch; [4]): 4.9
- fold induction at 100 µM (gdg6-G8 riboswitch): 5.1
- fold induction at 100 µM (add-G6 riboswitch; [5]): 6.6

Compound: C=CC[N@@+]12CC[C@@]34c5ccccc5N5/C=C6/[C@H]7C[C@H]8[C@@]9(CC[N@@+]8(CC=C)C/C7=C/CO)c7ccccc7N(/C=C(/[C@@H](C[C@@H]31)/C(=C\CO)C2)[C@H]54)[C@@H]69.[Cl-].[Cl-] [Alcuronium chloride]
- Fold Induction of luciferase activity (add-A6 riboswitch; [6]): 4.2 fold

Compound: NC(=O)C[S+]([O-])C(c1ccccc1)c1ccccc1 (stereo not shown) [Modafinil]
- fold induction at 100 µM (ydhl-A6 riboswitch; [7]): 3.8

Compound: CCOC(=O)Nc1ccc2c(c1)N(C(=O)CCN1CCOCC1)c1ccccc1S2 [Moricizine hydrochloride]
- fold induction at 100 µM (ydhl-A6 riboswitch; [1]): 10.3

Compound: COc1cc2nc(N3CCN(C(=O)C4CCCO4)CC3)nc(N)c2cc1OC (stereo not shown) [Terazosin hydrochloride]
- fold induction at 100 µM (add-A6 riboswitch; [3]): 3.5

Compound: C[C@]12CC[C@H](O)C[C@H]1CC[C@@H]1[C@@H]2C[C@@H](O)[C@]2(C)[C@@H](C3=CC(=O)OC3)CC[C@]12O [Digoxigenin]
- fold induction at 100 µM (ydhl-A6 riboswitch; [7]): 4.5
- Fold Induction of luciferase activity (ydhl-A6 riboswitch; Prestwick library compounds at 100 μM, HEK 293, 100 µM): 3.3 fold

Compound: thioguanosine
- Fold Induction of luciferase activity (gdg6-A8 riboswitch; 100 µM): 20.1 fold
- Fold Induction of luciferase activity (xpt-G17 riboswitch; xpt-G17 riboswitch): 21.0 fold
- Fold Induction of luciferase activity (xpt-A8 riboswitch; xpt-A8 riboswitch, Prestwick library compounds at 100 μM, HEK 293): 11.8 fold
- Fold Induction of luciferase activity (add-A6 riboswitch; [6]): 5.9 fold
- Fold Induction of luciferase activity (ydhl-G8 riboswitch): 7.5 fold
- Fold Induction of luciferase activity (yxj-A6 riboswitch; yxj-A6 riboswitch, Prestwick library compounds at 100 μM, HEK 293): 10.2 fold
- Fold Induction of luciferase activity (gdg6-G8 riboswitch; 100 µM): 15.9 fold
- Fold Induction of luciferase activity (add-G6 riboswitch; add-G6 riboswitch, Prestwick library compounds at 100 μM, HEK 293): 7.9 fold

Compound: Alverine citrate salt
- Fold Induction of luciferase activity (ydhl-A6 riboswitch; Prestwick library compounds at 100 μM, HEK 293): 4.2 fold

Compound: O=C(CCCN1CCC(n2c(O)nc3ccccc32)CC1)c1ccc(F)cc1 [Benperidol]
- fold induction at 100 µM (ydhl-A6 riboswitch; [7]): 3.1

Compound: NS(=O)(=O)c1cc2c(cc1Cl)NCNS2(=O)=O [Hydrochlorothiazide]
- fold induction at 100 µM (ydhl-A6 riboswitch; [7]): 3.3

Compound: Deptropine citrate
- Fold Induction of luciferase activity (add-A6 riboswitch; [6]): 3.3 fold
